Measured values as given in patent US20120088667A1, “SAFENING AGENT” (priority 2009, published 2012).
Read-outs that look alike come from different tables or passages of the source.

Assays:
PEA cv Ragtime [1] = test: Root nodulation, rooting and safening, pea, compost of low pH (Examples 7.5 and 7.7)
Text: (§1) The safener/safening system and the fertiliser were applied to the crops either simultaneously or sequentially.
(§2) Co=100% Cobalt Sulphate (20 g per litre and per hectare). FF1=20 g per litre Cobalt Sulphate (as per Co above) plus “Miracle-Gro” at xl recommended rate (applied at 15 g per 2.5 sq metres). Miracle-Gro contains: 24% N, 4% P, 13% K, plus 0.02% B, 0.03% Cu, 0.19% Fe, 0.05% Mn, 0.001% Mo and 0.03% Zn. FF2=20 g per litre Cobalt Sulphate plus Miracle-Gro at ×2 recommended rate. SAF: at least one from class (f) each at <3 g/l, plus at least one from class (c).
PEA—TRIAL 5—cv Ragtime. Scored/Counted+28 Days after Spraying. Sown in Compost of Low pH (5.0-5.5) on 28 Apr. 2008. Spray Date (VC)=26 May, V1 Date=14 June. Scored/Measured on 9 July. […] No inoculum applied.
Sowing details etc as per Example 7.5.

Winter wheat cv Alchemy = test: Safening of herbicides (Chlorotoluron, Isoproturon, Flumioxazin), winter wheat
Text: (§3) Safening systems were applied to crops of oilseed rape and winter treated with various herbicides (Bifenox (with insecticide), Carbetamide, Propaquizafop, Chlorotoluron, Isoproturon, Flumioxazin). The safening system and the herbicide were applied to the crops either simultaneously or sequentially.
(§4) Oilseed rape: cv Excalibur, sown 26 Apr. 2008, at two seeds per 9 cm pot, sown in normal pH multi-purpose compost. Date of spraying: 6 June; Dates of measurement/scoring: 13 June, 20 June, 5 July. Winter wheat: cv Alchemy, sown 23 Apr. 2008, at seven seeds per 9 cm pot, sown in normal pH multi-purpose compost. Date of spraying: 24 May; Dates of measurement/scoring: 31 May, 7 June, 21 June. SAF: at least one from class (f) each at <3 g/l, plus at least one from class (c).
(§5) Statistical Layout: Randomised Complete Block trials, under glasshouse conditions, United Kingdom.

Winter Barley cv Saffron = test: Safening of fertilisers, pot trial: phytotoxicity and vigour scores, winter barley; type: in vivo; conditions: for Phytotoxicity (0-9) (0 = Dead) + 14 Days / Phytotoxicity (0-9) (0 = Dead) + 28 Days: score 0-9, 0 = dead; for Vigour (0-9) (9 = Most Vigour) + 14 days / Vigour (0-9) + 28 Days: score 0-9
Text: (§6) The safening system and the fertilizer were applied either simultaneously or sequentially.
(§7) Sprayed: mid-tillering phase (GS23). Winter Wheat: cv Limerick, sown 4 Jun. […] Sprayed: mid-tillering phase (GS23). Lettuce: cv Set, sown 10 Jul. 2008, at one seed per pot, in John Innes No 1 compost. Date of spraying: 30 July; Dates of measurement: 7 August, 14 August, 28 August. Sprayed: 2 true leaf stage.

[2] = tested on: Oilseed rape cv Excalibur; conditions: for Greenness (0-9) (9 = Deeper Green) + 14 Days / Vigour (0-9) (9 = Most Vigour) + 14 days / Greenness (0-9) + 28 Days / Vigour (0-9) + 28 Days: score 0-9
Text: as §3, §4, §5

Soybean = test: Root nodulation and safening, soybean, compost of low pH (Example 7.1); conditions: Soybean, compost of low pH (5.0-5.5)
Text: as §1, §2
Scored/Counted+28 Days After Spraying. Sown in Compost of low pH (5.0-5.5) on 1 May 2008. Spray Date (VC)=4 June, V1 Date=20 June. Scored/Measured on 17 July. […] Seed density approx 110 kg/ha. Soybean treated with standard inoculant at sowing.

PEA cv Ragtime [3] = test: Root nodulation and safening, pea, compost of normal pH (Example 7.6); conditions: compost of normal pH (6.5)
Text: as §1, §2
PEA—TRIAL 7.6—cv Ragtime. Dates as per Example 7.5 above, but sown in compost of normal pH (6.5). […] No inoculum was applied.

Lettuce cv Set = test: Safening of fertilisers, pot trial: phytotoxicity and vigour scores, lettuce; type: in vivo
Text: as §6, §7

[4] = compost of low pH (5.0-5.5), V1, score 0-9
[5] = low pH compost, application at V1, 0-9 scale
[6] = Table 1.1, winter barley, phosphite fertiliser (KP)
[7] = Table 1.2, winter barley, KP/ATS
[8] = Table 1.3, winter barley, general fertilisers
[9] = herbicide Bifenox (with insecticide), Table 3.1
[10] = herbicides Carbetamide and Propaquizafop, Table 3.2
[11] = +28 days, herbicide Bifenox (with insecticide), Table 3.1
[12] = +28 days, herbicides Carbetamide and Propaquizafop, Table 3.2
[13] = Table 1.7, lettuce, phosphite fertiliser (KP), score 0-9, 0 = dead
[14] = Table 1.7, lettuce, phosphite fertiliser (KP), score 0-9
[15] = Table 1.8, lettuce, KP/ATS, score 0-9
[16] = Table 1.9, lettuce, general fertilisers, score 0-9, 0 = Dead

Nc1ccccc1C(=O)O [AN, anthranilic acid]
Nodules Per Plant (V1) (PEA cv Ragtime [1]; compost of low pH (5.0-5.5), V1, +28 days after spraying, no inoculum): 16.8 | Nodulation Score (0-9) (V1) (PEA cv Ragtime [1]; [4]): 5.0 | Phyto-Toxicity Score (0-9) (V1) (PEA cv Ragtime [1]; [4]): 5.2 | Vigour Score (0-9) (V1) (PEA cv Ragtime [1]; [4]): 5.5 | Nodules Per Plant (VC) (PEA cv Ragtime [1]; compost of low pH (5.0-5.5), VC): 17.3 | Nod Score (0-9) (VC) (PEA cv Ragtime [1]; compost of low pH (5.0-5.5), VC, score 0-9): 5.2 | Nodules Per Plant (V1) (PEA cv Ragtime [1]; low pH compost, application at V1 (data from Example 7.5)): 16.8 | Nodulation Score (0-9) (V1) (PEA cv Ragtime [1]; [5]): 5.0 | Phyto-Toxicity Score (0-9) (V1) (PEA cv Ragtime [1]; [5]): 5.2 | Rooting Score (0-9) (V1) (PEA cv Ragtime [1]; [5]): 4.2 | Greenness (0-9) (9 = Deeper Green) + 14 Days (Winter wheat cv Alchemy; Table 3.3, no herbicide): 8.0 | Phytotoxicity (0-9) (0 = Dead) + 14 Days (Winter wheat cv Alchemy; Table 3.3, no herbicide): 9.0 | Vigour (0-9) (9 = Most Vigour) + 14 days (Winter wheat cv Alchemy; Table 3.3, no herbicide): 9.0 | Greenness (0-9) + 28 Days (Winter wheat cv Alchemy; Table 3.3, no herbicide): 8.0 | Phytotoxicity (0-9) + 28 Days (Winter wheat cv Alchemy; Table 3.3, no herbicide): 8.0 | Vigour (0-9) + 28 Days (Winter wheat cv Alchemy; Table 3.3, no herbicide): 8.0 | Greenness (0-9) (9 = Deeper Green) + 14 Days (Winter wheat cv Alchemy; Table 3.4, no herbicide): 8.0 | Phytotoxicity (0-9) (0 = Dead) + 14 Days (Winter wheat cv Alchemy; Table 3.4, no herbicide): 9.0 | Vigour (0-9) (9 = Most Vigour) + 14 days (Winter wheat cv Alchemy; Table 3.4, no herbicide): 9.0 | Greenness (0-9) + 28 Days (Winter wheat cv Alchemy; Table 3.4, no herbicide): 8.0 | Phytotoxicity (0-9) + 28 Days (Winter wheat cv Alchemy; Table 3.4, no herbicide): 8.0 | Vigour (0-9) + 28 Days (Winter wheat cv Alchemy; Table 3.4, no herbicide): 8.0 | Greenness (0-9) (9 = Deeper Green) + 14 Days (Winter wheat cv Alchemy; Table 3.5, no herbicide): 8.0 | Phytotoxicity (0-9) (0 = Dead) + 14 Days (Winter wheat cv Alchemy; Table 3.5, no herbicide): 9.0 | Vigour (0-9) (9 = Most Vigour) + 14 days (Winter wheat cv Alchemy; Table 3.5, no herbicide): 9.0 | Greenness (0-9) + 28 Days (Winter wheat cv Alchemy; Table 3.5, no herbicide): 8.0 | Phytotoxicity (0-9) + 28 Days (Winter wheat cv Alchemy; Table 3.5, no herbicide): 8.0 | Vigour (0-9) + 28 Days (Winter wheat cv Alchemy; Table 3.5, no herbicide): 8.0 | Phytotoxicity (0-9) (0 = Dead) + 14 Days (Winter Barley cv Saffron; [6]): 7.5 | Phytotoxicity (0-9) (0 = Dead) + 28 Days (Winter Barley cv Saffron; [6]): 8.0 | Vigour (0-9) (9 = Most Vigour) + 14 days (Winter Barley cv Saffron; [6]): 7.0 | Vigour (0-9) + 28 Days (Winter Barley cv Saffron; [6]): 8.0 | Phytotoxicity (0-9) (0 = Dead) + 14 Days (Winter Barley cv Saffron; Table 1.2, winter barley, KP + ammonium thiosulphate (KP/ATS)): 7.5 | Phytotoxicity (0-9) (0 = Dead) + 28 Days (Winter Barley cv Saffron; [7]): 8.0 | Vigour (0-9) (9 = Most Vigour) + 14 days (Winter Barley cv Saffron; [7]): 7.0 | Vigour (0-9) + 28 Days (Winter Barley cv Saffron; [7]): 8.0 | Phytotoxicity (0-9) (0 = Dead) + 14 Days (Winter Barley cv Saffron; Table 1.3, winter barley, general NPK fertilisers (GEN + KP, GENEX)): 7.5 | Phytotoxicity (0-9) (0 = Dead) + 28 Days (Winter Barley cv Saffron; [8]): 8.0 | Vigour (0-9) (9 = Most Vigour) + 14 days (Winter Barley cv Saffron; [8]): 7.0 | Vigour (0-9) + 28 Days (Winter Barley cv Saffron; [8]): 8.0 | Phytotoxicity (0-9) (0 = Dead) + 14 Days ([2]; score 0-9, 0 = dead, herbicide Bifenox (with insecticide), Table 3.1): 9.0 | Phytotoxicity (0-9) (0 = Dead) + 14 Days ([2]; score 0-9, 0 = dead, herbicides Carbetamide and Propaquizafop, Table 3.2): 9.0 | Phytotoxicity (0-9) (0 = Dead) + 28 Days ([2]; score 0-9, 0 = dead, +28 days, herbicide Bifenox (with insecticide), Table 3.1): 8.0 | Phytotoxicity (0-9) + 28 Days ([2]; score 0-9, 0 = dead, +28 days, herbicides Carbetamide and Propaquizafop, Table 3.2): 8.0 | Greenness (0-9) (9 = Deeper Green) + 14 Days [2, 9]: 8.0 | Vigour (0-9) (9 = Most Vigour) + 14 days [2, 9]: 9.0 | Greenness (0-9) (9 = Deeper Green) + 14 Days [2, 10]: 8.0 | Vigour (0-9) (9 = Most Vigour) + 14 days [2, 10]: 9.0 | Greenness (0-9) + 28 Days [2, 11]: 8.0 | Vigour (0-9) + 28 Days [2, 11]: 8.0 | Greenness (0-9) + 28 Days [2, 12]: 8.0 | Vigour (0-9) + 28 Days [2, 12]: 8.0 | Nodules Per Plant (V1) (Soybean; V1, +28 days after spraying, mean of 12 plants): 28.2 | Nodulation Score (0-9) (V1) (Soybean; V1, score 0-9): 5.3 | Phyto-Toxicity Score (0-9) (V1) (Soybean; V1, score 0-9): 8.0 | Vigour Score (0-9) (V1) (Soybean; V1, score 0-9): 6.2 | Nodules Per Plant (VC) (Soybean; VC, +28 days after spraying): 33.2 | Nod Score (0-9) (VC) (Soybean; VC, score 0-9): 5.8 | Nodules Per Plant (V1) (PEA cv Ragtime [3]; V1, no inoculum): 17.2 | Nodulation Score (0-9) (V1) (PEA cv Ragtime [3]; V1, score 0-9): 5.2 | Phyto-Toxicity Score (0-9) (V1) (PEA cv Ragtime [3]; V1, score 0-9): 7.0 | Vigour Score (0-9) (V1) (PEA cv Ragtime [3]; V1, score 0-9): 6.9 | Nodules Per Plant (VC) (PEA cv Ragtime [3]; VC): 17.1 | Nod Score (0-9) (VC) (PEA cv Ragtime [3]; VC, score 0-9): 5.2 | Phytotoxicity (0-9) (0 = Dead) + 14 Days (Lettuce cv Set; [13]): 7.0 | Phytotoxicity (0-9) (0 = Dead) + 28 Days (Lettuce cv Set; [13]): 7.0 | Vigour (0-9) (9 = Most Vigour) + 14 days (Lettuce cv Set; [14]): 8.0 | Vigour (0-9) + 28 Days (Lettuce cv Set; [14]): 8.0 | Phytotoxicity (0-9) (0 = Dead) + 14 Days (Lettuce cv Set; Table 1.8, lettuce, KP + ammonium thiosulphate (KP/ATS), score 0-9, 0 = dead): 7.0 | Phytotoxicity (0-9) (0 = Dead) + 28 Days (Lettuce cv Set; Table 1.8, lettuce, KP/ATS, score 0-9, 0 = dead): 7.0 | Vigour (0-9) (9 = Most Vigour) + 14 days (Lettuce cv Set; [15]): 8.0 | Vigour (0-9) + 28 Days (Lettuce cv Set; [15]): 8.0 | Phytotoxicity (0-9) (0 = Dead) + 14 Days (Lettuce cv Set; [16]): 7.0 | Phytotoxicity (0-9) (0 = Dead) + 28 Days (Lettuce cv Set; [16]): 7.0 | Vigour (0-9) (9 = Most Vigour) + 14 days (Lettuce cv Set; Table 1.9, lettuce, general fertilisers, score 0-9, 9 = Most Vigour): 8.0 | Vigour (0-9) + 28 Days (Lettuce cv Set; Table 1.9, lettuce, general fertilisers, score 0-9): 8.0
